Results published in PMC12031237, “Toxicity Assessment of (4Z)-Lachnophyllum and (4Z,8Z)-Matricaria Lactones: Implications for Environmental Safety of Bioherbicides” (Toxins, 2025).
Converted amounts (≈) assume the structure as drawn. Like-named read-outs stand apart in the source and are kept apart here.

Key:
R. subcapitata [1] = test: Literature growth inhibition of R. subcapitata by herbicides; type: cell-based, Raphidocelis subcapitata
Source text: (§1) Table 3 EC50 values from the literature for the aquatic test species exposed to multiple commonly used herbicides. | column: Hazard Ranking

R. subcapitata [2] = settings: cited from earlier work
A. fischeri [3] = test: Literature acute toxicity of herbicides to A. fischeri; type: cell-based, Aliivibrio fischeri
Source text: as §1

A. fischeri [4] = settings: 30 min, cited from earlier work
D. magna [5] = test: Literature acute toxicity of herbicides to D. magna; type: in vivo, Daphnia magna
Source text: as §1

D. magna [6] = settings: 48 h, cited from earlier work
C. elegans = test: Nematode survival bioassay in soil, ASTM E2172-01; type: in vivo; settings: 24 h exposure, positive control
Procedure: The nematode bioassay was carried out using the Caenorhabditis elegans wild-type strain N2, Bristol variant, according to the ASTM E2172—01 Standard Method (2014). Culture was maintained on NGM (nematode growth media) plates seeded with Escherichia coli (uracil-deficient OP50 strain) and stored at 20 °C. The tests were conducted using age-synchronized adult nematodes, obtained by lysing gravid nematodes with a bleaching solution (10 g/L NaOH, 10.5 g/L NaOCl), followed by centrifugation and washing with an M9 mineral medium (2.2 mM KH2PO4, 4.2 mM Na2HPO4, 85.6 mM NaCl, and 1 mM MgSO4). The synchronized nematodes were then transferred to NGM agar plates and left to recover overnight.
Soil samples (2.33 g) were hydrated to 35–45% of their dry weight using K-medium in centrifuge tubes. Ten worms were transferred to each tube and exposed to the soil samples for 24 h at 20 °C. […] Treatments were performed in triplicate, with worms kept unfed during the exposure period. Nematodes were extracted by centrifugation (2000 rpm, 2 min) using silica gel (Ludox TM 50, Sigma-Aldrich, St. Louis, MO, USA) with a specific density of 1.13 g/mL. The supernatant was then transferred to 100 mm glass Petri dishes and washed with Keller (K) medium. Extracted individuals were counted under a microscope (40× magnification), with mortality as the measured endpoint. Test validity required a minimum of 80% nematode recovery and 90% survival in the control group.

D. magna [7] = test: Crustacean immobility acute test, ISO 6341; type: in vivo, Daphnia magna
Procedure: The immobility acute test (48 h) with D. magna was conducted according to ISO 6341 [60]. D. magna was selected from laboratory stock cultures at the Hygiene Laboratory of the Department of Biology of the University of Naples Federico II, placed in ISO medium, and fed daily with the microalgae R. subcapitata. For the test, five neonates (third brood, <24 h old) were exposed in 10 mL of ISO medium to the following corresponding concentrations: 0.22, 0.43, 0.86, 1.73, 3.46, 6.91, 13.83, 27.65, and 55.30 mg L^−^1 and a negative control of 0 mg L^−^1. Each concentration had 4 replicates, and immobility was assessed after 24 and 48 h of exposure.
(§2) Data analysis was conducted using RStudio for Windows (Version 2024.09.1). Dose–response models were applied to estimate the effective concentrations (EC10 and EC50) for the tested endpoints using the “drc” package. For D. magna, the data were modeled with a binomial log-logistic approach, whereas data for R. subcapitata, A. fischeri and L. sativum were fitted to log-logistic models with the upper limit constrained to 100. Furthermore, to ensure assay sensitivity and validity, a positive control exposed to potassium dichromate for the aquatic species and copper chloride for C. elegans was tested under the same experimental conditions.

A. fischeri [8] = test: Bioluminescence (light) inhibition test, ISO 11348-3; settings: 30 min exposure; standard error in brackets, n = 3
Procedure: The bioluminescence inhibition test (30 min) was detected with the A. fischeri (NRRLB-11177) supplied by MicroBioTest, Gent, Belgium, and according to ISO 11348-3 [59]. The bioluminescence was determined by the luminometer Microtox (Model 500 analyzer, New Castle, DE, USA) at 490 nm. To provide the required osmotic pressure for the bacterium, the stock solution was diluted to perform the test in saline water solution (2% sodium chloride, NaCl). The concentrations tested correspond to 0.19, 0.39, 0.78, 1.56, and 3.12 mg L^−^1 and a negative control of 0 mg L^−^1. Toxicity tests were performed in triplicate with a control, and the percentage luminescence inhibition was expressed as the ratio of the decrease in bacterial light production to the remaining light.
as §2

R. subcapitata [9] = test: Algal growth inhibition test, ISO 8692; settings: positive control
Procedure: The algal growth inhibition test (72 h) with R. subcapitata was carried out according to ISO 8692 [58]. The algal density was determined by spectrophotometric analysis (DR5000, Hach Lange GbH, Weinheim, Germany) at 670 nm. The concentrations tested correspond to 0.19, 0.39, 0.78, 1.56, and 3.12 mg L^−^1 and a negative control of 0 mg L^−^1. The growth inhibition was calculated as the difference in growth at the end of the test of the sample and the control group. Toxicity tests were carried out in triplicate.
as §2

[10] = GHS ranking of 72 h EC50 of ref 49
[11] = GHS ranking of 30 min EC50 of ref 49
[12] = GHS ranking of 48 h EC50 of ref 49
[13] = GHS ranking of 96 h EC50 of ref 47

In the case of `CCNc1nc(Cl)nc(NC(C)C)n1` [Atrazine], the “Hazard Ranking” value (R. subcapitata [1]; [10]) is given as “**** (Very toxic (≤1 mg L^−1))”, the EC50 (R. subcapitata [2]; 72 h) is given as 0.02 µg/mL (≈ 0.0927 µM) and the “Hazard Ranking” value (A. fischeri [3]; [11]) is given as “** (harmful: (<10 mg L^−1 ≤ 100 mg L^−1))”. The EC50 (A. fischeri [4]; ref 49) was 39.80 µg/mL (≈ 185 µM), the “Hazard Ranking” value (D. magna [5]; [12]) was “**** (Very toxic (≤1 mg L^−1))” and the EC50 (D. magna [6]; ref 49) was 0.05 mg/L (≈ 0.232 µM).
In the case of `O=C(O)CNCP(=O)(O)O` [Glyphosate], the “Hazard Ranking” value (R. subcapitata [1]; [13]) is given as “*** (toxic (<1 mg L^−1 ≤ 10 mg L^−1))”, the EC50 (R. subcapitata [2]; 96 h) is given as 5.55 µg/mL (≈ 32.8 µM) and the “Hazard Ranking” value (A. fischeri [3]; GHS ranking of 30 min EC50 of ref 48) is given as “*** (toxic (<1 mg L^−1 ≤ 10 mg L^−1))”. The EC50 (A. fischeri [4]; ref 48) was 2.93 µg/mL (≈ 17.3 µM), the “Hazard Ranking” value (D. magna [5]; GHS ranking of 48 h EC50 (commercial formulation) of ref 39) was “*** (toxic (<1 mg L^−1 ≤ 10 mg L^−1))” and the “Hazard Ranking” value (D. magna [5]; GHS ranking of 48 h EC50 (isopropylamine salt) of ref 39) was “*** (toxic (<1 mg L^−1 ≤ 10 mg L^−1))”. For the same compound, the “Hazard Ranking” value (D. magna [5]; GHS ranking of 48 h EC50 of ref 40) was “*** (toxic (<1 mg L^−1 ≤ 10 mg L^−1))”, the “Hazard Ranking” value (D. magna [5]; GHS ranking of 48 h EC50 of ref 41) was “*** (toxic (<1 mg L^−1 ≤ 10 mg L^−1))” and the “Hazard Ranking” value (D. magna [5]; GHS ranking of 48 h LC50 of ref 42) was “** (harmful: (<10 mg L^−1 ≤ 100 mg L^−1))”. For the same compound, the “Hazard Ranking” value (D. magna [5]; GHS ranking of 48 h LC50 of ref 43) was “* (not harmful: (>100 mg L^−1))”, the “Hazard Ranking” value (D. magna [5]; GHS ranking of 48 h LC50 of ref 44) was “**** (Very toxic (≤1 mg L^−1))” and the “Hazard Ranking” value (D. magna [5]; GHS ranking of 48 h LC50 of ref 45) was “*** (toxic (<1 mg L^−1 ≤ 10 mg L^−1))”. The “Hazard Ranking” value (D. magna [5]; GHS ranking of 48 h LC50 of ref 46) was “** (harmful: (<10 mg L^−1 ≤ 100 mg L^−1))”, the EC50 (D. magna [6]; average of multiple tests performed, given as isopropylamine salt) was 4.30 °° mg L^−1 and the EC50 (D. magna [6]; average of multiple tests performed, rounded up (formulation commercially available)) was 7.15 ° mg L^−1. For the same compound, the EC50 (D. magna [6]; ref 40) was 4.20 mg/L (≈ 24.8 µM), the EC50 (D. magna [6]; ref 41) was 8.90 mg/L (≈ 52.6 µM) and the LC50 (D. magna [6]; ref 42) was 21.34 µg/mL (≈ 126 µM). For the same compound, the LC50 (D. magna [6]; ref 43) was 190.0 µg/mL (≈ 1120 µM), the LC50 (D. magna [6]; ref 44) was 0.012 µg/mL (≈ 0.071 µM) and the LC50 (D. magna [6]; ref 45) was 9.34 µg/mL (≈ 55.2 µM). For the same compound, the LC50 (D. magna [6]; ref 46) was 11.68 µg/mL (≈ 69.1 µM).
For `CCc1cccc(C)c1N(C(=O)CCl)C(C)COC` (stereo not shown) [Metolachlor], the “Hazard Ranking” value (R. subcapitata [1]; [10]) is listed as “**** (Very toxic (≤1 mg L^−1))”, the “Hazard Ranking” value (R. subcapitata [1]; [13]) is listed as “*** (toxic (<1 mg L^−1 ≤ 10 mg L^−1))” and the EC50 (R. subcapitata [2]; 72 h) is listed as 0.055 µg/mL (≈ 0.194 µM). For the same compound, the EC50 (R. subcapitata [2]; 96 h) was 5.51 µg/mL (≈ 19.4 µM), the “Hazard Ranking” value (A. fischeri [3]; [11]) was “** (harmful: (<10 mg L^−1 ≤ 100 mg L^−1))” and the “Hazard Ranking” value (A. fischeri [3]; GHS ranking of 30 min EC50 of ref 50) was “* (not harmful: (>100 mg L^−1))”. The “Hazard Ranking” value (A. fischeri [3]; GHS ranking of 30 min EC50 of ref 51) was “* (not harmful: (>100 mg L^−1))”, the EC50 (A. fischeri [4]; ref 49) was 17.00 µg/mL (≈ 59.9 µM) and the EC50 (A. fischeri [4]; ref 50) was 265.00 µg/mL (≈ 934 µM). For the same compound, the EC50 (A. fischeri [4]; ref 51) was 214.85 µg/mL (≈ 757 µM), the “Hazard Ranking” value (D. magna [5]; [12]) was “** (harmful: (<10 mg L^−1 ≤ 100 mg L^−1))” and the EC50 (D. magna [6]; ref 49) was 23.50 mg/L (≈ 82.8 µM).
For `CCC(=O)Nc1ccc(Cl)c(Cl)c1` [Propanil], the “Hazard Ranking” value (R. subcapitata [1]; [10]) is given as “**** (Very toxic (≤1 mg L^−1))”, the EC50 (R. subcapitata [2]; 72 h) is given as 0.05 µg/mL (≈ 0.229 µM) and the “Hazard Ranking” value (D. magna [5]; [12]) is given as “*** (toxic (<1 mg L^−1 ≤ 10 mg L^−1))”. For the same compound, the EC50 (D. magna [6]; ref 49) was 2.00 mg/L (≈ 9.17 µM).
`[Cl][Cu][Cl]` [copper chloride, reference compound] showed an EC50 (C. elegans) of 42.37 µg/mL.
In the case of `[K+].[K+].[O]=[Cr](=[O])([O-])[O][Cr](=[O])(=[O])[O-]` [potassium dichromate, reference compound], the “EC50 (immobilization)” value (D. magna [7]; 24 h exposure) is reported as 10.501 µg/mL, the “EC50 (immobilization)” value (D. magna [7]; 48 h exposure) is reported as 5.66 µg/mL and the “EC50 (light inhibition)” value (A. fischeri [8]) is reported as 3.730 µg/mL. The “EC50 (growth inhibition)” value (R. subcapitata [9]) was 0.987 µg/mL.
